The structures appear in SMILES notation. Counter-ions that a name gives are not always drawn.

This assay deals with Tyr::CreER; B-RafV600E/+; Ptenlox/+ and Ptenlox/lox mice. In words: Genetically-initiated model of melanoma progression. Type of assay: in vivo, mouse. As to the method:
The Tyr::CreER; B-Raf^V600E/+, Pten^lox/+/Tyr::CreER; B-Raf^V600E/+, Pten^lox/lox conditional model of melanoma progression was previously established and characterized by Dankort et al. (2009). Briefly, melanoma in these mice was induced at 6 weeks of age by intraperitoneally injecting 4-HT (H6278, 70% isomer, Sigma-Aldrich, St Louis, Mo.) at 25 mg/kg administered in peanut oil on three consecutive days. The 4-HT stock solution was prepared by dissolving it in 100% EtOH at 50 mg/mL by heating at 45° C. for 5 min and mixing. Once dissolved, the stock 4-HT solution was then diluted by 10-fold in peanut oil, yielding a 5 mg/mL 4-HT working solution that was then injected into mice. After the first 4-HT injection, mice were blindedly assigned to receive either a control diet or a diet supplemented with GW3965 (100 mg/kg). Mice were examined three times a week for the presence and progression of melanoma lesions. At day 35, dorsal skin samples were harvested from control-treated and GW3965-treated mice, fixed in 4% PFA and photographed at 10×. The percentage of pigmented melanoma lesion area out of the total skin area was quantified using ImageJ. For survival analyses, mice were monitored daily for melanoma progression and euthanized according to a standard body condition score, taking into account initial signs of moribund state and discomfort associated with the progression of melanoma burden. Post-mortem, the lungs, brains, and salivary glands were harvested and examined for the presence of macroscopic melanoma lesions.

For `O=C(O)Cc1cccc(OCCCN(Cc2cccc(C(F)(F)F)c2Cl)CC(c2ccccc2)c2ccccc2)c1` [GW3965 2, 3-[3-[N-(2-Chloro-3-trifluoromethylbenzyl)-(2,2-diphenylethyl)amino]propyloxy]phenylacetic acid hydrochloride], under “Ptenlox/+ and Ptenlox/lox mice, diet 100 mg/kg”, the overall survival times entry is “significantly extended”. The “number of lymphatic metastases detected post-mortem” value (Ptenlox/lox mice, salivary gland lymph nodes, 100 mg/kg) is “decrease”. For the same compound, the tumor progression entry (diet 100 mg/kg after melanoma initiation) is “attenuated”.

(Values after patent publication US9399028B2, “Treatment of drug resistant cancer” (ROCKEFELLER UNIVERSITY (THE), priority 2012, dated 2016).)
